Data from patent US11261183B2, “Sulfoximine glycosidase inhibitors” (Asceneuron SA, priority 2016, dated 2022).

Columns and labels:
[1] = target: Human O-GlcNAcase (His-Tagged hOGA) (Homo sapiens (Human), UniProt O60502); assay: Human O-GlcNAcase enzyme inhibition assay; assay type: biochemical; conditions: His-Tagged hOGA 20 nM, FL-GlcNAc 10 μM, 60 min, room temperature, pH 6.5; read-out: Enzymatic OGA IC50
Protocol: Example B01: Human O-GlcNAcase enzyme inhibition assay
5 μl of the appropriate concentration of a solution of inhibitor in McIlvaine's Buffer (pH 6.5) in 2% DMSO (for a dose response curve calculation) is added into each well of a 384-well plate (Greiner, 781900). Then, 20 nM of His-Tagged hOGA and 10 μM of FL-GlcNAc (Fluorescein mono-beta-D-(2-deoxy-2-N-acetyl) glucopyranoside; Marker Gene Technologies Inc, M1485) were added to the 384-well plate for a final volume of 20 μl. After incubation for 60 min at room temperature, the reaction was terminated by the addition of 10 μL of stop buffer (200 mM glycine, pH 10.75).

[2] = Protein binding in mice plasma using Rapid Equilibrium Dialysis; assay type: in vitro ADME, CD1 mice; conditions: 37° C.; for fraction unbound at 5 h, 1 µM: male, CD1, mouse, plasma, pH 7.4, CD1 mouse plasma
Protocol: Example B04: Protein binding in mice plasma using Rapid Equilibrium Dialysis
• CD1 Mice Plasma: pooled male, K2-EDTA ([…]2, Bioreclammation, USA • Phosphate Buffered Saline (1×PBS), pH 7.4, 100 mM (Sigma, Cat No. P4417) • RED inserts (Pierce, Cat No. 9006, 8 kDa MWCO) • Sample Analysis: LC-MS/MS Methods • Preparation of DMSO Stock Solution
From 20 mM DMSO stock solutions of reference and test compounds, 1 mM DMSO intermediate working solutions are prepared. From 1 mM intermediate working solutions, 100 μM DMSO working solutions are prepared. • Sample Preparation Procedure:
Selected plasma is brought from −20° C. to 37° C. using water bath before its use. Test solution is prepared by adding the DMSO working solution of the reference or test compound (2 μL; 100 μM) to the selected plasma (198 μL). Spiked plasma (200 μl) is transferred to sample compartment of RED insert placed in the teflon plate. 350 μl of 1×PBS is added in the buffer compartment of RED insert. The teflon plate is covered with sealing mat and agitated at 37° C. for 5 hours at 500 RPM in a Thermomixer. After incubation time, an aliquot of plasma (50 μl) from sample compartment is mixed with blank 1×PBS (50 μl). Similarly, an aliquot of buffer (50 μl) from buffer compartment is mixed with blank plasma (50 μl). Quenching solution (200 μL, acetonitrile containing internal standard tolbutamide (0.5 μg/mL)) is added and the resulting solutions are mixed using a vortex mixer and centrifuged (Eppendorf 5415, 13792 g). Supernatants are analyzed using a Mass Spectrometer. The sample (supernatant fraction, 5 μL) is injected into the LC-MS/MS instrument. • Chromatographic Conditions: LC-MS/MS: API 4000 LC-MS/MS Software: Analyst Version 1.6.1 Column Phenomenex Synergy 30*4.6*5μ Column Oven: 40° C. Mode: ESI Positive Injection volume: 5 μl Flow Rate: […] Buffer: 0.1% Formic acid in Water Method: Isocratic Method/Gradient Composition: A) 0.1% Formic acid in Water B) 0.1% Formic acid in Methanol
After the concentration of free drug and total drug has been determined by LCMS/MS, percent plasma protein binding can be calculated as follows:
[formula] Following this protocol, % fraction unbound in plasma from different species can be also measured.

Human O-GlcNAcase (His-Tagged hOGA), sequence (O60502 whole entry): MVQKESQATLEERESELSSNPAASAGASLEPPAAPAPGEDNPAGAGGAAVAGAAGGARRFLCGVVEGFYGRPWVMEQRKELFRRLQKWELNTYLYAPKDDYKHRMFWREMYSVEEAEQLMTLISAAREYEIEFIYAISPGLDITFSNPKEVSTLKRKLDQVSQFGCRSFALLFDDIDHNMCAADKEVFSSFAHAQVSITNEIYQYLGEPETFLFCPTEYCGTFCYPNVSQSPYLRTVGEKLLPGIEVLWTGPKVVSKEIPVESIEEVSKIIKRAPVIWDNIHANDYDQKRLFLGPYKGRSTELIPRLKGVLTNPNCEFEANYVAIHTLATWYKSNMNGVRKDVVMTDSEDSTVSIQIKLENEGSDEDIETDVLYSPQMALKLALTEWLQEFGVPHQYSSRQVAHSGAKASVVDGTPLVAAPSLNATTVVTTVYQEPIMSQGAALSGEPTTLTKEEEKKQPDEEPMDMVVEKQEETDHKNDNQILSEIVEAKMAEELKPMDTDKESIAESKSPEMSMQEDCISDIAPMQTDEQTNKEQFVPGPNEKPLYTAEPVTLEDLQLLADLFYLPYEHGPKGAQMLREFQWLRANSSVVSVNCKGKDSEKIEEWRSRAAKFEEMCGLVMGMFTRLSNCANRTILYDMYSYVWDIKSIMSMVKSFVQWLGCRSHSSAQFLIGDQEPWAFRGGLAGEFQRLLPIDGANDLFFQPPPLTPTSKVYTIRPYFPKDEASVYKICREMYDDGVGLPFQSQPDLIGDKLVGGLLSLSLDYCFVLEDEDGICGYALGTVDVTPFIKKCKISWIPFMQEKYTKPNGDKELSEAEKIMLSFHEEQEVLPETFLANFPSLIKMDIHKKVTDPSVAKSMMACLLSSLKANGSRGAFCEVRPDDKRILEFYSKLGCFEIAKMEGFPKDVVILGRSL

| IC50 [1] | fraction unbound at 5 h, 1 µM [2] | % fraction unbound in mouse plasma ([2]; CD1 mouse plasma, 5 hours) | SMILES |
| --- | --- | --- | --- |
| < 50 nM | 0.21 |  | CC(c1ccc2c(c1)OCC2)N1CCN(c2ccc(S(C)(=N)=O)cc2)CC1 (racemic) [Example 11, (4-(4-(1-(2,3-dihydrobenzofuran-6-yl)ethyl)piperazin-1-yl)phenyl)(imino)(methyl)-λ^6-sulfanone] |
| 50 to 200 nM | 0.222 |  | CC(c1ccc2c(c1)OCCC2)N1CCN(c2ncc(S(C)(=N)=O)cn2)CC1 (racemic) [Example 21, (2-(4-(1-(chroman-7-yl)ethyl)piperazin-1-yl)pyrimidin-5-yl)(imino)(methyl)-λ^6-sulfanone] |
| < 50 nM | 0.248 |  | CC(c1ccc2scnc2c1)N1CCN(c2ncc(S(C)(=N)=O)cn2)CC1 (racemic) [Example 22, (2-(4-(1-(benzo[d]thiazol-5-yl)ethyl)piperazin-1-yl)pyrimidin-5-yl)(imino)(methyl)-λ^6-sulfanone] |
| < 50 nM | 0.215 |  | CCS(=N)(=O)c1cnc(N2CCN(C(C)c3ccc4scnc4c3)CC2)nc1 (racemic) [Example 23, (2-(4-(1-(benzo[d]thiazol-5-yl)ethyl)piperazin-1-yl)pyrimidin-5-yl)(ethyl)(imino)-λ^6-sulfanone] |
| < 50 nM | 0.134 |  | CCCS(=N)(=O)c1cnc(N2CCN(C(C)c3ccc4scnc4c3)CC2)nc1 (racemic) [Example 24, (2-(4-(1-(benzo[d]thiazol-5-yl)ethyl)piperazin-1-yl)pyrimidin-5-yl)(imino)(propyl)-λ^6-sulfanone] |
| < 50 nM | 0.211 |  | CN=S(C)(=O)c1cnc(N2CCN(C(C)c3ccc4scnc4c3)CC2)nc1 (racemic) [Example 25, (2-(4-(1-(benzo[d]thiazol-5-yl)ethyl)piperazin-1-yl)pyrimidin-5-yl)(methyl)(methylimino)-λ^6-sulfanone] |
| < 50 nM | 0.18 |  | CC(c1ccc2scnc2c1)N1CCN(c2ccc(S(C)(=N)=O)cn2)CC1 (racemic) [Example 26, (6-(4-(1-(benzo[d]thiazol-5-yl)ethyl)piperazin-1-yl)pyridin-3-yl)(imino)(methyl)-λ^6-sulfanone] |
| < 50 nM | 0.186 |  | CCN=S(C)(=O)c1cnc(N2CCN(C(C)c3ccc4scnc4c3)CC2)nc1 (racemic) [Example 27] |
| < 50 nM | 0.286 |  | COCCN=S(C)(=O)c1cnc(N2CCN(C(C)c3ccc4scnc4c3)CC2)nc1 (racemic) [Example 29, (2-(4-(1-(benzo[d]thiazol-5-yl)ethyl)piperazin-1-yl)pyrimidin-5-yl)((2-methoxyethyl)imino)(methyl)-λ^6-sulfanone] |
| < 50 nM | 0.229 |  | CC(c1ccc2scnc2c1)N1CCN(c2ncc(N=S(C)(C)=O)cn2)CC1 (racemic) [Example 31, ((2-(4-(1-(benzo[d]thiazol-5-yl)ethyl)piperazin-1-yl)pyrimidin-5-yl)imino)dimethyl-λ^6-sulfanone] |
| < 50 nM | 0.0535 |  | CC(c1ccc2scnc2c1)N1CCN(c2ncc(C(=O)N=S(C)(C)=O)cn2)CC1 (racemic) [Example 32, 2-(4-(1-(benzo[d]thiazol-5-yl)ethyl)piperazin-1-yl)-N-(dimethyl(oxo)-λ^6-sulfanylidene)pyrimidine-5-carboxamide] |
| 50 to 200 nM | 0.132 |  | CC(c1ccc2scnc2c1)N1CCN(c2ccc(S(C)(=N)=O)cc2)CC1 (racemic) [Example 33, (4-(4-(1-(benzo[d]thiazol-5-yl)ethyl)piperazin-1-yl)phenyl)(imino)(methyl)-λ^6-sulfanone] |
| < 50 nM | 0.101 |  | Cc1nc2cc(C(C)N3CCN(c4ncc(S(C)(=N)=O)cn4)CC3)ccc2s1 (racemic) [Example 42, Imino(methyl)(2-(4-(1-(2-methylbenzo[d]thiazol-5-yl)ethyl)piperazin-1-yl)pyrimidin-5-yl)-λ^6-sulfanone] |
| < 50 nM | 0.214 |  | CN=S(C)(=O)c1cnc(N2CCN(C(C)c3ccc4sc(C)nc4c3)CC2)nc1 (racemic) [Example 45, methyl(2-(4-(1-(2-methylbenzo[d]thiazol-5-yl)ethyl)piperazin-1-yl)pyrimidin-5-yl)(methylimino)-λ^6-sulfanone] |
| < 50 nM | 0.115 |  | Cc1nc2cc(C(C)N3CCN(c4ccc(S(C)(=N)=O)cn4)CC3)ccc2s1 (racemic) [Example 46, imino(methyl)(6-(4-(1-(2-methylbenzo[d]thiazol-5-yl)ethyl)piperazin-1-yl)pyridin-3-yl)-λ^6-sulfanone] |
| 50 to 200 nM | 0.0959 |  | CN=S(C)(=O)c1ccc(N2CCN(C(C)c3ccc4sc(C)nc4c3)CC2)nc1 (racemic) [Example 47, methyl(6-(4-(1-(2-methylbenzo[d]thiazol-5-yl)ethyl)piperazin-1-yl)pyridin-3-yl)(methylimino)-λ^6-sulfanone] |
| < 50 nM | 0.0534 |  | CCN=S(C)(=O)c1cnc(N2CCN(C(C)c3ccc4sc(C)nc4c3)CC2)nc1 (racemic) [Example 48, (ethylimino)(methyl)(2-(4-(1-(2-methylbenzo[d]thiazol-5-yl)ethyl)piperazin-1-yl)pyrimidin-5-yl)-λ^6-sulfanone] |
| 50 to 200 nM | 0.0545 |  | Cc1nc2cc(C(C)N3CCN(c4ncc(S(C)(=O)=NC(C)C)cn4)CC3)ccc2s1 (racemic) [Example 49, (isopropylimino)(methyl)(2-(4-(1-(2-methylbenzo[d]thiazol-5-yl)ethyl)piperazin-1-yl)pyrimidin-5-yl)-λ^6-sulfanone] |
| 50 to 200 nM | 0.39 |  | Cc1nc2cc(C(C)N3CCN(c4ncc(S(C)(=N)=O)cn4)CC3)ccc2o1 (racemic) [Example 55, imino(methyl)(2-(4-(1-(2-methylbenzo[d]oxazol-5-yl)ethyl)piperazin-1-yl)pyrimidin-5-yl)-λ^6-sulfanone] |
| < 50 nM | 0.0848 |  | CC(c1ccc2scnc2c1)N1CCN(c2ncc3c(n2)CCS(=N)(=O)C3)CC1 (racemic) [Example 59, 2-(4-(1-(benzo[d]thiazol-5-yl)ethyl)piperazin-1-yl)-6-imino-5,6,7,8-tetrahydro-6λ^4-thiopyrano[4,3-d]pyrimidine 6-oxide] |
| < 50 nM | 0.113 |  | CC(c1ccc2c(c1)OCC2)N1CCN(c2ncc3c(n2)CCS(=N)(=O)C3)CC1 (racemic) [Example 61, 2-(4-(1-(2,3-dihydrobenzofuran-6-yl)ethyl)piperazin-1-yl)-6-imino-5,6,7,8-tetrahydro-6λ^4-thiopyrano[4,3-d]pyrimidine 6-oxide] |
| < 50 nM | 0.424 |  | CC(c1ccc2c(c1)OCC2)N1CCN(c2ncc(S(C)(=N)=O)cn2)CC1 (single isomer, unassigned) [Example 12] |
| < 50 nM |  | 35.63% | CC(c1ccc2c(c1)OCC2)N1CCN(c2ncc(S(C)(=N)=O)cn2)CC1 (single isomer, unassigned) [Example 14] |
| < 50 nM | 0.208 |  | COCCN=S(C)(=O)c1cnc(N2CCN(C(C)c3ccc4c(c3)OCC4)CC2)nc1 (single isomer, unassigned) [Example 17] |
| < 50 nM | 0.223 |  | CN=S(C)(=O)c1ccc(N2CCN(C(C)c3ccc4c(c3)OCC4)CC2)nc1 (single isomer, unassigned) [Example 20, (6-(4-((S)-1-(2,3-dihydrobenzofuran-6-yl)ethyl)piperazin-1-yl)pyridin-3-yl)(methyl)(methylimino)-λ^6-sulfanone or (6-(4-((R)-1-(2,3-dihydrobenzofuran-6-yl)ethyl)piperazin-1-yl)pyridin-3-yl)(methyl)(methylimino)-λ^6-sulfanone] |
